Legend:
[1] = system: Human Lung Fibroblasts from a Patient with Idiopathic Pulmonary Fibrosis (IPF); assay: Procollagen and fibronectin ELISA of spent medium, IPF lung fibroblast culture; assay type: cell-based; conditions: 6 days, both in the absence or presence of 0.4 ng/ml TGFβ
Experimental: (§1) Human Lung Fibroblasts from a Patient with Idiopathic Pulmonary Fibrosis (IPF) (Lonza Bioscience, Cat. #CC-7231) were cultured in 96-well plates. Treatments were applied in triplicate wells (applied 100 ul treatments per well) for 6 days. Cells were near confluence at the start of treatments. […] Spent culture medium collected at the end of the treatments was assayed for procollagen and fibronectin by enzyme-linked immunosorbent assays (ELISA) (Procollagen ELISA antibody pair (ab216064) and fibronectin ELISA antibody pair (ab222262) from Abcam). Procollagen and fibronectin were not detected in medium not applied to cells. Procollagen and fibronectin levels in the medium are represented by means±SD (bars) from 3 replicate wells (open circles).

[2] = system: Human cardiac fibroblasts; assay: Procollagen and fibronectin ELISA of spent medium, cardiac fibroblast culture; assay type: cell-based; conditions: 6 days, both in the absence or presence of 0.4 ng/ml TGFβ
Experimental: as §1, with “cardiac fibroblasts” for “Lung Fibroblasts from a Patient with Idiopathic Pulmonary Fibrosis (IPF)”, “#CC-2903)” for “#CC-7231)”, “of” for “of the”

CC[C@@H]1NC(=O)[C@H]([C@H](O)[C@H](C)CCCCCCNC(C)=O)N(C)C(=O)[C@H](C(C)C)N(C)C(=O)[C@H](CC(C)C)N(C)C(=O)[C@H](CC(C)C)N(C)C(=O)[C@@H](C)NC(=O)[C@H](C)NC(=O)[C@H](CC(C)C)N(C)C(=O)[C@H](C(C)C)NC(=O)[C@H](CC(C)C)N(C)C(=O)[C@@H](C)N(C)C1=O [CRV431]
dose-dependently decreased: abundance of fibronectin in the medium [1] | abundance of procollagen in the medium [1] | abundance of fibronectin in the medium [2] | abundance of procollagen in the medium [2]
